A word on the Ki: it is a dissociation constant, usually derived from enzyme kinetics or from competition with a known ligand.

For 14 compounds, Ki results are on record in patent publication US10822338B2, “Substituted aminoquinazoline compounds as A2A antagonist” (Merck Sharp & Dohme Corp., priority 2015, dated 2020).

human A2A receptor, sequence (P29274 whole entry): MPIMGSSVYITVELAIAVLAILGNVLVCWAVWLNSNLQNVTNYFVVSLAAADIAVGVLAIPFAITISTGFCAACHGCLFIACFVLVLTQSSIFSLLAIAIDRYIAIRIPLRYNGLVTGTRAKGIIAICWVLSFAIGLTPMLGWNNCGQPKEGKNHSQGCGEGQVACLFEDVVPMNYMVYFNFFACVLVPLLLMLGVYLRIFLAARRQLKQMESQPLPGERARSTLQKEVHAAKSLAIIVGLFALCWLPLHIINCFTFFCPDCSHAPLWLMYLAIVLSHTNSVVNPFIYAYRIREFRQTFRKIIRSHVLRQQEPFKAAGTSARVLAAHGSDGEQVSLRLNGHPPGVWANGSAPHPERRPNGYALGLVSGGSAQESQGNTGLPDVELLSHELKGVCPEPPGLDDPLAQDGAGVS

The first test addresses human A2A receptor (Homo sapiens (Human), UniProt P29274). The test is described as follows: A2A competition binding assay using Scintillation Proximity technology. The settings on record: 0.25 μg of membranes from HEK293 cells expressing the human A2a receptor per well; 0.5 nM tritiated radioligand; Cheng-Prusoff. On the procedure: Binding affinities of compounds of the invention for the human A2A receptor were determined in a competition binding assay using Scintillation Proximity technology. Thus, 1^μg (^ denotes 1 μg of membrane/well), or preferably 0.25 μg of membranes from HEK293 cells expressing the human A2a receptor were incubated with a compound of the invention at concentrations ranging from 3000 nM to 0.15 nM in a reaction mixture containing also 0.5 nM of a tritiated form of 5-amino-7-[2-phenethyl]-2-(furan-2-yl)-7H-pyrazolo[4,3-e][1,2,4]triazolo[1,5-c]pyrimidine (the tritiated compound) and 25 μg of wheat germ agglutin-coated yttrium silicate SPA beads for one hour at room temperature with agitation. The beads were then allowed to settle to the bottom of the wells for 1 hr, after which the membrane-associated radioactivity was determined by scintillation counting in a TopCount microplate reader. Ki values were determined using the Cheng-Prusoff equation.
HEK293 cells expressing the human, rat, dog or monkey adenosine 2a receptor (Purchased from Perkin-Elmer # RBHA2AM400UA).
The Tritiated compound was prepared in-house by MRL Radiochemistry according to published methods.
Wheat germ agglutinin-coated yttrium silicate SPA beads (GE Healthcare #RPNQ0023). Dilute to 25 mg/mL in assay buffer.
Assay Buffer was prepared in house: Dulbecco's calcium and magnesium free phosphate buffered saline+10 mM MgCl2
Adenosine deaminase from calf intestine, 10 mg/2 mL (Roche #10 102 105 001).
A2A antagonist standard (9-chloro-1-(2-furanyl)-[1,2,4]triazolo[1,5-c]quinazolin-5-amine from Tocris Bioscience)
Make eight 1:3 serial dilutions in 100% DMSO from a 3 mM compound stock
Transfer 50 nL of compound into a 384-well OptiPlate (Perkin Elmer).
Typically, final concentrations of compound used in the assay ranged from 3000 nM to 0.152 nM.
Dilute a solution of the Tritiated compound to 1.25 nM in assay buffer. This a 2.5× solution. The final concentration in the assay is 0.5 nM. Calculate the concentration by counting two 5 μL aliquots.
Use *1 ug or preferrably 0.25 ug of membrane/well. Dilute membranes to 9.7 μg/ml in assay buffer. Treat with 20 ug/ml adenosine deaminase (ADA) for 15 minutes at room temperature to degrade endogenous adenosine.
Use 25 μg/well wheat germ agglutinin-coated yttrium silicate SPA beads.
Mix ADA-treated membranes and SPA beads together for 30 min prior to assay.
To the Perkin-Elmer Optiplate-384 containing the compound titration add 20 μL of 2.5× solution of the Tritiated compound and 30 μL of the membrane-bead mixture. Incubate for one hour at room temperature with agitation.
Include total binding (assay buffer+1% DMSO) and non-specific binding (CGS15943, 1 μM) wells.
Allow the beads to settle for one hour.
A curve fitting program (i.e., Prism, Activity Base, Chemcart) is used to determine the EC50. The Ki value is calculated using the Cheng-Prusoff equation. Ki=EC50/(1+(radioligand concentration/Kd)) Counting and Calculations
Counting and calculations were performed as described within the “A2A Activity Binding of Compounds of the Invention” section. Using the foregoing methods, the following results were obtained using compounds of the invention described herein. Each example compound tested is reported in the following format: Example number: A2A Ki (nM) selectivity.
`COc1cccc2c1nc(N)n1nc(C3CN(CC(F)F)CC(F)(F)C3)nc21` (single isomer, unassigned) [Example 34A, 2-(1-(2,2-difluoroethyl)-5,5-difluoropiperidin-3-yl)-7-methoxy-[1,2,4]triazolo[1,5-c]quinazolin-5-amine]: the Ki worked out at 1.1 nM. `CCC(C)(C)N1CCC[C@@H](c2nc3c4cccc(OC)c4nc(N)n3n2)C1` [Example 31, (R)-7-methoxy-2-(1-(tert-pentyl)piperidin-3-yl)-[1,2,4]triazolo[1,5-c]quinazolin-5-amine] returned a Ki of 33 nM. Still for that read-out and setting: next, `COc1cccc2c1nc(N)n1nc([C@@H]3CCCN(C(=O)C(C)(C)F)C3)nc21` [Example 42, (R)-1-(3-(5-amino-7-methoxy-[1,2,4]triazolo[1,5-c]quinazolin-2-yl)piperidin-1-yl)-2-fluoro-2-methylpropan-1-one]: 1.1 nM; `COc1cccc2c1nc(N)n1nc(C3CC4CCC3N(CC(F)(F)F)C4)nc21` (single isomer, unassigned) [Example 35C, 7-methoxy-2-(2-(2,2,2-trifluoroethyl)-2-azabicyclo[2.2.2]octan-6-yl)-[1,2,4]triazolo[1,5-c]quinazolin-5-amine]: 0.3 nM.

For the compound `COc1cccc2c1nc(N)n1nc([C@@H]3CCCN(CC(F)(F)F)C3)nc21` [Example 23, (R)-7-methoxy-2-(1-(2,2,2-trifluoroethyl)piperidin-3-yl)-[1,2,4]triazolo[1,5-c]quinazolin-5-amine], the Ki came out at 0.8 nM. Same read-out and setting: to `COc1cccc2c1nc(N)n1nc(C3CC4CCC3N(CC(F)(F)F)C4)nc21` (single isomer, unassigned) [Example 35A, 7-methoxy-2-(2-(2,2,2-trifluoroethyl)-2-azabicyclo[2.2.2]octan-6-yl)-[1,2,4]triazolo[1,5-c]quinazolin-5-amine] belongs 21 nM; to `COc1cccc2c1nc(N)n1nc([C@@H]3CCCN(Cc4cc(F)cc(C(F)(F)F)c4)C3)nc21` [Example 46, 2-((3R)-1-[3-fluoro-5-(trifluoromethyl)benzyl)piperidin-3-yl)-7-methoxy[1,2,4]triazolo [1,5-c]quinazolin-5-amine], 2 nM. The same measure, in the same setting: to `Nc1nc2ccccc2c2nc([C@@H]3CCCN(CC(F)F)C3)nn12` [Example 28, (R)-2-(1-(2,2-difluoroethyl)piperidin-3-yl)-[1,2,4]triazolo[1,5-c]quinazolin-5-amine] belongs 11 nM. Same read-out and setting: next, `COc1cccc2c1nc(N)n1nc([C@@H]3CCCN(CC4(C)CC4)C3)nc21` [Example 10, (R)-7-methoxy-2-(1-((1-methylcyclopropyl)methyl)piperidin-3-yl)-[1,2,4]triazolo[1,5-c]quinazolin-5-amine]: 20 nM; `Nc1nc2c(OC(F)F)cccc2c2nc([C@@H]3CCCN(CC(F)F)C3)nn12` [Example 25, (R)-2-(1-(2,2-difluoroethyl)piperidin-3-yl)-7-(difluoromethoxy)-[1,2,4]triazolo[1,5-c]quinazolin-5-amine]: 1.2 nM.

Staying with this test, now noted: values marked ^: 1 μg of membrane/well (HEK293 cells expressing the human A2a receptor); 0.5 nM tritiated radioligand; Cheng-Prusoff.
The compound `Nc1nc2c3c(ccc2c2nc(C4CCCN(CCC(F)(F)F)C4)nn12)OC(F)(F)O3` (single isomer, unassigned) [Example 56B] yielded a Ki of 55 nM.

Compound `COc1cccc2c1nc(N)n1nc([C@@H]3CCCN(C(=O)c4ccccc4)C3)nc21` [Example 37, (R)-(3-(5-amino-7-methoxy-[1,2,4]triazolo[1,5-c]quinazolin-2-yl)piperidin-1-yl)(phenyl)methanone] yielded a Ki of 1.3 nM. On the same count and under the same terms, to `CCCCN1CCC[C@@H](c2nc3c4cccc(OC)c4nc(N)n3n2)C1` [Example 7, (R)-2-(1-butylpiperidin-3-yl)-7-methoxy-[1,2,4]triazolo[1,5-c]quinazolin-5-amine] belongs 29 nM. Same read-out and setting: next, `COc1cccc(C(=O)N2CCC[C@@H](c3nc4c5cccc(OC)c5nc(N)n4n3)C2)c1` [Example 41, 7-methoxy-2-((3R)-1-((3-methoxyphenyl)carbonyl)piperidin-3-yl)[1,2,4]triazolo[1,5-c]quinazolin-5-amine]: 1.9 nM.
